Reference: patent US11730714B2, “Compounds for the treatment of neuromuscular disorders” (NMD PHARMA A/S, priority 2017, dated 2023)

Assays:
Type in all cases: cell-based
rat soleus muscles = test: Mg2+ concentration required to depress nerve-stimulated force by 50% (Kd,Mg2+), combination with 3,4-AP; details: combination of C8 and 3,4-diaminopyridine; elevated extracellular Mg2+
Description: FIGS. 6A-6E. […] Muscles from 4-week-old rats were stimulated to contract by activating the motor nerve with short duration pulses in field stimulation. Muscles contracted every 10 min for 2 s in response to 30 Hz stimulation. Four different experimental conditions were used. […] C) similar to A) but this muscle had been pre-incubated with 3,4-AP. […] The force integral (AUC) was determined at each extracellular Mg^2+ concentration. AUC was plotted against Mg^2+ concentration and the data was fitted to a sigmoidal function. This provided the extracellular Mg^2+ concentration that was required to reduce the nerve-stimulated force to 50% (Mg50) under the four different conditions (see Table 5).
While the use of tubocurarine mimics conditions with reduced neuromuscular transmission due to post-synaptic dysfunction (myasthenia gravis, neuromuscular blockade), the experiments with elevated extracellular Mg^2+ mimics conditions with pre-synaptic dysfunction akin to a range of neuromuscular disorders including Lambert Eaton syndrome, motor neuron disorders and polyneuropathy. […] Based on this it was determined whether recovery of nerve-stimulated force at elevated extracellular Mg^2+ with CIC-1 inhibiting compounds could be added to force recovery with 3,4-AP. […] To quantify the effect of compounds on Mg^2+ sensitivity the force at the different Mg^2+ concentrations was determined. […]

isolated rat muscle = test: Measurement of force in an in vitro model: isolated rat soleus nerve-muscle preparation, 115 nM tubocurarine; details: 50 μM compound, 40 mins exposure, 115 nM tubocurarine, isolated rat soleus nerve-muscle preparation
Description: FIGS. 12A-12B. […] Force traces from a representative muscle stimulated to contract in 1) control condition before addition of neuromuscular blocking agent, 2) the force response to stimulation after 90 minutes incubation with Tubocurarine. […] The traces presented in FIG. 12A (1, 2, 3), correspond to the dotted lines in FIG. 12B, respectively.
Recovery of force is quantified as the percentage of the force prior to tubocurarine that is recovered by the compound.
The current invention relates to compounds that inhibit CIC-1 ion channels and increase muscle excitability and thereby improve muscle function in clinical conditions where muscle activation is failing. Such conditions result in loss of contractile function of skeletal muscle, weakness and excessive fatigue. […]
Experimentally, soleus muscles from 4-5 wk old rats were isolated with the motor nerve remaining attached. […] Stimulation of the motor nerve led to activation of the muscle fibres and ensuing force production that was recorded.
After mounting the nerve-muscle preparation in the experimental setup, the contractile function of the muscle was initially assessed under the control conditions (FIG. 2A). […] To quantify the ability of the compound to restore force the percentage of the initial force that was restored was determined after 40 mins of compound exposure (FIG. 2B) and the point increase is reported in Table 8.

CIC-1 channels = biological target: T1, CIC-1 channels (Rattus norvegicus, UniProt P35524); test: Electrophysiological measurement of compound inhibition of CIC-1 in rat muscle (Gm, EC50); details: rat soleus muscle fibres, three micro-electrode Gm measurement; read-out: EC50 (inhibition of ClC-1 ion channel, Gm)
T1 construct: Gm was measured in individual fibres of whole rat soleus muscles; from tissue; host or cells: soleus muscle of adult (12-14 week old) Wistar rats
T1 sequence (P35524 1-994): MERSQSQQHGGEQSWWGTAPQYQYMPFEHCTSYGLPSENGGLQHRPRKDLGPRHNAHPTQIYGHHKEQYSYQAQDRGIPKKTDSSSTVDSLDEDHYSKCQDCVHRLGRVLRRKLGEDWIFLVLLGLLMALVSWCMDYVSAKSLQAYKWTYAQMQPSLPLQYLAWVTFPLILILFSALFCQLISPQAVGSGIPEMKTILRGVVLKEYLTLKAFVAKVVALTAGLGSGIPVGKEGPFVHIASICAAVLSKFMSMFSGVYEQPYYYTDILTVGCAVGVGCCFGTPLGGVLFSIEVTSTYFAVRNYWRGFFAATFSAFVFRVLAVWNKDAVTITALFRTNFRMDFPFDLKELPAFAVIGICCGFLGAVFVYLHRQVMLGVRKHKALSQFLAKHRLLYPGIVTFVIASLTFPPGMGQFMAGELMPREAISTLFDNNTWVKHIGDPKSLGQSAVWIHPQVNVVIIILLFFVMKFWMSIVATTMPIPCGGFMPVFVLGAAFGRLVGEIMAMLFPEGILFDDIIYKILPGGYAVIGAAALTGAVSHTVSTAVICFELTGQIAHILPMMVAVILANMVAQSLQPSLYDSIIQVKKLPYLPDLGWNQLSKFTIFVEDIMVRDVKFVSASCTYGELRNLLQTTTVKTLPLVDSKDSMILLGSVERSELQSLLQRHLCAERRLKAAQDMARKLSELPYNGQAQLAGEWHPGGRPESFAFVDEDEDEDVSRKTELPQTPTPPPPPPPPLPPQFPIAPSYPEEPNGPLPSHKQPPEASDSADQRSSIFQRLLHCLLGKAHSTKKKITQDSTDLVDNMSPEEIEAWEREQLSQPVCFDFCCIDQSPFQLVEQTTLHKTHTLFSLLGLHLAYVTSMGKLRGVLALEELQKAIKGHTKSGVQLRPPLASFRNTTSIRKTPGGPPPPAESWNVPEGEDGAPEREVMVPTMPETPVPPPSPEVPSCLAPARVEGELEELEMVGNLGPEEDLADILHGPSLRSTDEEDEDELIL

Compound	effect on recovery of neuromuscular transmission (rat soleus muscles)	Point increase (%) of initial force that was restored (isolated rat muscle) [%]	EC50 (CIC-1 channels) [µM]
C[C@H](Oc1ccc(Br)cc1)C(=O)O [Compound C8, (2S)-2-(4-bromophenoxy)propanoic acid]	unexpected synergistic effect	–	–
(2S)-2-(4-bromophenoxy)(2-^2H)butanoic acid [Compound A-60]	–	62	7.5 ± 1
